Measured values as given in the supplement of paper PMC13207355.

Assays:
Settings in all cases: exposure time: 72 h
E28 [1] = patient-derived glioblastoma stem cells of classical subtype; assay: phenotypic distance (Euclidean, principal components) from DMSO controls (arbitrary units); higher = stronger morphological change
E13 [2] = patient-derived glioblastoma stem cells of classical subtype; assay: as above
FT3469 [3] = normal neural stem cell line; assay: as above
E34 [4] = patient-derived glioblastoma stem cells of proneural subtype; assay: as above
E31 [5] = patient-derived glioblastoma stem cells of proneural subtype; assay: as above
E57 [6] = patient-derived glioblastoma stem cells of mesenchymal subtype; assay: as above
E21 [7] = patient-derived glioblastoma stem cells of mesenchymal subtype; assay: as above
E28 [8] = assay: surviving fraction (nuclei count normalised to DMSO); higher = more cells surviving (less toxic)
E13 [9] = assay: as above
FT3469 [10] = assay: as above
E34 [11] = assay: as above
E31 [12] = assay: as above
E57 [13] = assay: as above
E21 [14] = assay: as above
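For phenotypic distance (Euclidean, principal components) from DMSO controls in this document: cell Painting imaging in 384-well plates, CellProfiler features reduced to at least 20 principal components, Euclidean distance versus same-plate DMSO vehicle wells (0.1% v/v), median over six images per well.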
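For surviving fraction (nuclei count normalised to DMSO) in this document: nuclei counted by high-content imaging of Hoechst-stained cells in laminin-coated 384-well plates, relative to 0.1% DMSO vehicle wells, with staurosporine as cell-death control.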

Cn1ncnc1[C@H]1c2n[nH]c(=O)c3cc(F)cc(c23)N[C@@H]1c1ccc(F)cc1 [Talazoparib]
Settings	phenotypic distance	surviving fraction
E13 [2], 4.1 nM	1.44	–
E13 [2], 12.3 nM	1.97	–
E13 [2], 37 nM	2.08	–
E13 [2], 111.1 nM	2.45	–
E13 [2], 333.3 nM	3.55	–
E13 [2], 1000 nM	4.7	–
E13 [2], 3000 nM	4.3	–
E13 [9], 4.1 nM	–	0.705
E13 [9], 12.3 nM	–	0.673
E13 [9], 37 nM	–	0.629
E13 [9], 111.1 nM	–	0.593
E13 [9], 333.3 nM	–	0.548
E13 [9], 1000 nM	–	0.461
E13 [9], 3000 nM	–	0.51
E21 [7], 4.1 nM	4.97	–
E21 [7], 12.3 nM	1.69	–
E21 [7], 37 nM	2.19	–
E21 [7], 111.1 nM	2.75	–
E21 [7], 333.3 nM	3.08	–
E21 [7], 1000 nM	4.5	–
E21 [7], 3000 nM	5.21	–
E21 [14], 4.1 nM	–	0.755
E21 [14], 12.3 nM	–	0.777
E21 [14], 37 nM	–	0.709
E21 [14], 111.1 nM	–	0.629
E21 [14], 333.3 nM	–	0.565
E21 [14], 1000 nM	–	0.403
E21 [14], 3000 nM	–	0.292
E28 [1], 4.1 nM	3.02	–
E28 [1], 12.3 nM	2.65	–
E28 [1], 37 nM	3.31	–
E28 [1], 111.1 nM	3.57	–
E28 [1], 333.3 nM	3.51	–
E28 [1], 1000 nM	3.37	–
E28 [1], 3000 nM	4.36	–
E28 [8], 4.1 nM	–	0.503
E28 [8], 12.3 nM	–	0.47
E28 [8], 37 nM	–	0.44
E28 [8], 111.1 nM	–	0.418
E28 [8], 333.3 nM	–	0.388
E28 [8], 1000 nM	–	0.395
E28 [8], 3000 nM	–	0.3
E31 [5], 4.1 nM	1.5	–
E31 [5], 12.3 nM	1.58	–
E31 [5], 37 nM	1.6	–
E31 [5], 111.1 nM	2.21	–
E31 [5], 333.3 nM	2.86	–
E31 [5], 1000 nM	2.1	–
E31 [5], 3000 nM	2.79	–
E31 [12], 4.1 nM	–	0.59
E31 [12], 12.3 nM	–	0.663
E31 [12], 37 nM	–	0.623
E31 [12], 111.1 nM	–	0.534
E31 [12], 333.3 nM	–	0.342
E31 [12], 1000 nM	–	0.265
E31 [12], 3000 nM	–	0.207
E34 [4], 4.1 nM	3.39	–
E34 [4], 12.3 nM	3.64	–
E34 [4], 37 nM	3.15	–
E34 [4], 111.1 nM	3.62	–
E34 [4], 333.3 nM	3.3	–
E34 [4], 1000 nM	2.98	–
E34 [4], 3000 nM	3.55	–
E34 [11], 4.1 nM	–	0.623
E34 [11], 12.3 nM	–	0.671
E34 [11], 37 nM	–	0.556
E34 [11], 111.1 nM	–	0.594
E34 [11], 333.3 nM	–	0.561
E34 [11], 1000 nM	–	0.503
E34 [11], 3000 nM	–	0.48
E57 [6], 4.1 nM	1.57	–
E57 [6], 12.3 nM	1.96	–
E57 [6], 37 nM	1.65	–
E57 [6], 111.1 nM	2.9	–
E57 [6], 333.3 nM	3.02	–
E57 [6], 1000 nM	6.02	–
E57 [6], 3000 nM	6.4	–
E57 [13], 4.1 nM	–	0.807
E57 [13], 12.3 nM	–	0.735
E57 [13], 37 nM	–	0.797
E57 [13], 111.1 nM	–	0.676
E57 [13], 333.3 nM	–	0.605
E57 [13], 1000 nM	–	0.313
E57 [13], 3000 nM	–	0.25
FT3469 [3], 4.1 nM	2.18	–
FT3469 [3], 12.3 nM	1.53	–
FT3469 [3], 37 nM	1.5	–
FT3469 [3], 111.1 nM	1.69	–
FT3469 [3], 333.3 nM	1.74	–
FT3469 [3], 1000 nM	1.99	–
FT3469 [3], 3000 nM	2.44	–
FT3469 [10], 4.1 nM	–	0.637
FT3469 [10], 12.3 nM	–	0.778
FT3469 [10], 37 nM	–	0.657
FT3469 [10], 111.1 nM	–	0.727
FT3469 [10], 333.3 nM	–	0.648
FT3469 [10], 1000 nM	–	0.636
FT3469 [10], 3000 nM	–	0.569
